Measurements: patent publication US20220324800A1 (priority 2021, published 2022)

Target: 3CLpro (Severe acute respiratory syndrome coronavirus 2, UniProt P0DTD1)
Test: biochemical
Parameters: species or system SARS-CoV-2

Row | SMILES | IC50 [nM]
1 | CC(C)C[C@H](NC(=O)c1cc2c(F)cccc2o1)C(=O)CN(C[C@@H]1CCNC1=O)C(=O)CCl [Example 15, N—((S)-1-(2-Chloro-N—(((S)-2-oxopyrrolidin-3-yl)methyl)acetamido)-5-methyl-2-oxohexan-3-yl)-4-fluorobenzofuran-2-carboxamide] | < 2000
2 | CC(C)C[C@H](NC(=O)OCc1ccccc1)C(=O)CN(C[C@@H]1CCNC1=O)C(=O)CCl [Example 20, Benzyl ((S)-1-(2-chloro-N—(((S)-2-oxopyrrolidin-3-yl)methyl)acetamido)-5-methyl-2-oxohexan-3-yl)carbamate] | < 2000
3 | CC(C)C[C@H](NC(=O)OC(C)(C)C)C(=O)CN(C[C@@H]1CCNC1=O)C(=O)CCl [Example 1, Tert-butyl ((S)-1-(2-chloro-N—(((S)-2-oxopyrrolidin-3-yl)methyl)acetamido)-5-methyl-2-oxohexan-3-yl)carbamate] | < 2000
4 | COc1cccc2[nH]c(C(=O)N[C@@H](CC(C)C)C(=O)CN(C[C@@H]3CCNC3=O)S(=O)(=O)CCl)cc12 [Example 10, N—((S)-1-((1-Chloro-N—(((S)-2-oxopyrrolidin-3-yl)methyl)methyl)sulfonamido)-5-methyl-2-oxohexan-3-yl)-4-methoxy-1H-indole-2-carboxamide] | > 20000
5 | CC(C)C[C@H](NC(=O)c1cc(Cl)c(Cl)s1)C(=O)CN(C[C@@H]1CCNC1=O)C(=O)CCl [Example 11, 4,5-Dichloro-N—((S)-1-(2-chloro-N—(((S)-2-oxopyrrolidin-3-yl)methyl)acetamido)-5-methyl-2-oxohexan-3-yl)thiophene-2-carboxamide] | < 2000
6 | C#CC(=O)N(CC(=O)[C@H](CC(C)C)NC(=O)c1cc2c(OC)cccc2[nH]1)C[C@@H]1CCNC1=O [Example 6, 4-Methoxy-N—((S)-5-methyl-2-oxo-1-(N—(((S)-2-oxopyrrolidin-3-yl)methyl)propiolamido)hexan-3-yl)-1H-indole-2-carboxamide] | 2000 to 20000
7 | CC(C)C[C@H](NC(=O)c1cc2ccccc2o1)C(=O)CN(C[C@@H]1CCNC1=O)C(=O)CCl [Example 14, N—((S)-1-(2-Chloro-N—(((S)-2-oxopyrrolidin-3-yl)methyl)acetamido)-5-methyl-2-oxohexan-3-yl)benzofuran-2-carboxamide] | < 2000
8 | CC(C)C[C@@H](NC(=O)OCc1ccccc1)C(=O)CN(C[C@@H]1CCNC1=O)C(=O)CCl [Example 21, Benzyl ((R)-1-(2-chloro-N—(((S)-2-oxopyrrolidin-3-yl)methyl)acetamido)-5-methyl-2-oxohexan-3-yl)carbamate] | 2000 to 20000
9 | COc1cccc2[nH]c(C(=O)N[C@@H](CC(C)C)C(=O)CN(C[C@@H]3CCNC3=O)C(=O)CCl)cc12 [Example 2, N—((S)-1-(2-Chloro-N—(((S)-2-oxopyrrolidin-3-yl)methyl)acetamido)-5-methyl-2-oxohexan-3-yl)-4-methoxy-1H-indole-2-carboxamide] | < 2000
10 | CC(C)C[C@H](NC(=O)c1cccs1)C(=O)CN(C[C@@H]1CCNC1=O)C(=O)CCl [Example 13, N—((S)-1-(2-Chloro-N—(((S)-2-oxopyrrolidin-3-yl)methyl)acetamido)-5-methyl-2-oxohexan-3-yl)thiophene-2-carboxamide] | < 2000
11 | C=CC(=O)N(CC(=O)[C@H](CC(C)C)NC(=O)c1cc2c(OC)cccc2[nH]1)C[C@@H]1CCNC1=O [Example 4, 4-Methoxy-N—((S)-5-methyl-2-oxo-1-(N—(((S)-2-oxopyrrolidin-3-yl)methyl)acrylamido)hexan-3-yl)-1H-indole-2-carboxamide] | > 20000
12 | COc1cccc2[nH]c(C(=O)N[C@@H](CC(C)C)C(=O)CN(C[C@@H]3CCNC3=O)C(=O)SCc3ccccc3)cc12 [Example 18, S-Benzyl ((S)-3-(4-methoxy-1H-indole-2-carboxamido)-5-methyl-2-oxohexyl)(((S)-2-oxopyrrolidin-3-yl)methyl)carbamothioate] | > 20000
13 | C=CC(=O)N(CC(=O)[C@H](CC(C)C)NC(=O)OC(C)(C)C)C[C@@H]1CCNC1=O [Example 3, Tert-butyl ((S)-5-methyl-2-oxo-1-(N—(((S)-2-oxopyrrolidin-3-yl)methyl)acrylamido)hexan-3-yl)carbamate] | > 20000
14 | CC(C)C[C@H](NC(=O)OC(C)(C)C)C(=O)CN(C[C@@H]1CCNC1=O)C(=O)SCc1ccccc1 [Example 16, Tert-butyl ((S)-1-(((benzylthio)carbonyl)(((S)-2-oxopyrrolidin-3-yl)methyl)amino)-5-methyl-2-oxohexan-3-yl)carbamate] | > 20000
15 | CC(C)C[C@H](NC(=O)c1cc2c(F)cccc2s1)C(=O)CN(C[C@@H]1CCNC1=O)C(=O)CCl [Example 12, N—((S)-1-(2-Chloro-N—(((S)-2-oxopyrrolidin-3-yl)methyl)acetamido)-5-methyl-2-oxohexan-3-yl)-4-fluorobenzo[b]thiophene-2-carboxamide] | < 2000
16 | COc1cccc2[nH]c(C(=O)N[C@@H](CC(C)C)C(=O)CN(C[C@@H]3CCNC3=O)C(=O)CF)cc12 [Example 8, N—((S)-1-(2-Fluoro-N—(((S)-2-oxopyrrolidin-3-yl)methyl)acetamido)-5-methyl-2-oxohexan-3-yl)-4-methoxy-1H-indole-2-carboxamide] | > 20000
17 | CC(=O)OCC(=O)N(CC(=O)[C@H](CC(C)C)NC(=O)OC(C)(C)C)C[C@@H]1CCNC1=O [Example 17, 2-(((S)-3-((Tert-butoxycarbonyl)amino)-5-methyl-2-oxohexyl)(((S)-2-oxopyrrolidin-3-yl)methyl)amino)-2-oxoethyl acetate] | > 20000
